We go through 1 sequence from US20030021796A1, “Method of enhancing T cell immunity by selection of antigen specific T cells” (priority 2001, published 2003).

Test [1] has as its system TCR^TgTCRα^− lymph node cells. The test can be described thus: Proliferation of TCR transgenic lymph node cells stimulated with agonist peptides ([3H]thymidine incorporation). It is filed as cell-based, mouse. The protocol:
Antigen response of TCR transgenic cells. Proliferation of lymph node cells isolated from TCR^TgTCRα^−and TCR^TgTCRα^−2-M^−Ii^− mice injected with the selecting peptide was measured in response to antigen. Response of the TCR^TgTCRα^− lymph node cells to different agonist peptides was measured by proliferation assay in a 96-well plate. 10^5 responder cells were stimulated with peptides presented by 5×10^5 irradiated C57BL6 splenocytes. Agonist peptides were used at concentrations of 0.01, 0.1, 0.5, 1.0, 2.5, 5.0, 10.0 and 20.0 μM. After 3 days cells were pulsed with 1 μCi of [^3H]thymidine added to each well and after 18 hours thymidine incorporation was measured. The sequences of peptides used were: PCC50V (AEGFSYTVANKNKGIT), PCC50L (AEGFSYTLANKNKGIT), PCC50V54A (AEGFSYTVANKAKGIT), PCC46A49A50V54A (AEGASYAVANKAKGIT), PCC50F54A (AEGFSYTFANKAKGIT), neutral ceramidase (AGFFQYTLYILASEG) and IgGVH (NADFKTPATLTVDKA). All peptides were synthesized by FMOC (fluorenyl methoxycarbonyl) chemistry and purified by reversed-phase high-performance liquid chromatography. To compare the antigenic response of CD4^+ TCR Tg cells lymph node cells were collected from TCR^TgTCRα^− and TCR^TgTCRα^−H2-M^−Ii^− mice two weeks after peptide injection. Single cell suspensions were prepared and CD4^+ cells were sorted using magnetic beads coated with anti CD4 antibodies (MACS). Purity of sorted cells exceeded 85%. 2×10^4 of purified CD4^+ cells were used in proliferation assay. Cells were stimulated with increasing concentrations of agonist peptides presented by APCs from wild type or H2-M^−Ii^− mice. IgGVH derived peptide (20 μM) was used as a negative control. Peptides were presented by irradiated splenocytes from a C57BL6 mouse. Proliferation was measured after 3 days by thymidine incorporation by pulsing cells with 1 μCi of [^3H] thymidine for 18 hours. Antagonism assay was done by prepulsing 5×10^5 antigen-presenting cells per well for 2 hr. with 5 μM of the antigenic peptide PCC50V54A, washing, and then exposing them to varying concentrations of peptide analogs with 2×10^4 purified CD4^+ TCR^Tg lymphocytes as responder cells (Lyons et al., 1996). For antagonism assays the percent of proliferation inhibition was calculated as 100-100*(thymidine incorporation in the presence of antagonist/thymidine incorporation in the absence of antagonist) (Lyons et al., 1996).
A general note: Dividing cells build labelled thymidine or BrdU into new DNA.

The test system of test [2] is transgenic thymocytes. The test can be described thus: Negative selection of transgenic thymocytes after i.p. peptide injection into TCR^TgTCRα^− mice (wild type A^b). Format: in vivo, mouse. The protocol: (§1) Flow cytometry analysis. Monoclonal antibodies specific for CD4(RM4-5), CD8(53-6.7), VβB8(F23.1), CD69(H1.2F3), CD44(IM7) and CD62L(MEL-14) were purchased from PharMingen (San Diego, Calif.) and used according to manufacturer's recommendations. Cells were analyzed using a FACSCalibur instrument (Becton Dickinson, San Jose, Calif.) and CellQuest software. For intracellular stain cells were first stained for CD4 and CD8, fixed in 2% paraformaldehyde, permeabilized in 0.1% Tween-20 and stained with anti-bcl-2 antibody (Pharmingen) according to manufacturer instruction.
(§2) Peptide injections and surgical procedures. TCR^TgTCRα^− and TCR^TgTCRαH2-M^−Ii^− were injected i.p. with agonist and control peptides dissolved in PBS. After indicated time mice were sacrificed, thymus and lymph nodes were collected and single cell suspensions were prepared. Pups were injected with 2 μg of peptide subcutaneously 12-24 hours after birth and thymi were transplanted into recipient mice 24 hours after injection. 5-8 week old TCR^TgTCRα^− H2-M^−Ii^− mice were used for thymectomy or as thymic transplant recipients. Surgical procedures were performed as described (Coligan et al., 1997). Mice were handled according with the institutional guidance.
Characterization of peptide agonists for the PCC specific transgenic αβTCR. To examine the role of peptides during positive selection in vivo, the inventors generated transgenic mice expressing class II restricted TCR specific for analogs of a pigeon cytochrome C peptide PCC(43-58) presented by the A molecule (Kraj et al., 2001). This receptor recognizes analogs of PCC(43-58) in which aspartic acid in position 50 is replaced by amino acids with neutral/hydrophobic (PCC50V, PCC50V54A, PCC46A49A50V54A, PCC50L, PCC50F) side chains (FIG. 6 and FIG. 9). The TCR transgenic mice were backcrossed to C57BL6 TCRα^− knockout mice so that almost all T cells expressing transgenic TCR become CD4^+ T cells (FIG. 4A and FIG. 10A). Initially, the inventors examined the capacity of agonist peptides to induce negative selection of transgenic T cells.

Test [3] deals with transgenic CD4^+ thymocytes. The test can be described thus: Positive selection of CD4^+ thymocytes after peptide injection into TCR^TgTCRα^−H2-M^−Ii^− mice (flow cytometry of thymus). Format: in vivo, mouse.
From the text: Mice. The TCR genes were cloned from T cell hybridoma specific for analogs of the PCC(43-58) peptide and expressed in VA-hCD2 cassette (Ignatowicz et al., 1997; Kraj et al., 2001; Zhumabekov et al., 1995). All TCR transgenic mice were made by co-microinjection of the respective […] and TCRβ constructs into fertilized eggs of F1 (C57BL/6×CBA/Ca) mice. TCR Tg mice were crossed to C57B16/TCRα^− (Jackson Laboratory, ME) mice and to mice deficient in H2-M (kindly provided by E. Bikoff and R. Germain) and Ii (kindly provided by L. van Kaer) to obtain TCR^TgTCRα^− H2-M^−Ii^−.
as §1, §2
Background: Flow cytometry measures light scatter and fluorescence of single cells or particles in a stream.

For test [4], the system named is transgenic CD4^+ thymocytes. Put plainly: Neonatal thymic organ cultures (NTOC) from peptide-injected TgTCRα^−H-2M^−Ii^− neonates. Format: cell-based, mouse. Particulars: single i.p. injection just after birth, thymus harvested 24 hours later. The source says: The TgTCRα^−H-2M^−Ii^− system enables the visualization of thymocyte positive selection in real time and in the native intrathymic environment. An in vitro system was setup where the transgenic thymocytes undergo efficient positive selection and commit to the CD4^+ lineage. […] These observations agreed with the previous reports in which CD8^+, but not CD4+, T cells could be positively selected by the specific peptide in FTOCs (Kenty et al., 1998; Liblau et al, 1996). Therefore, neonatal thymic organ cultures (NTOC) were established from TgTCRα^−-H-2M^−Ii^− neonates. The neonates received a single i.p. injection of the PCC50V54A peptide just after birth and were sacrificed 24 hours later when their thymuses were harvested.

Where [5] appears, read: one i.p. injection of 50 μg, 24 hours.

“Also recorded” adds a separate entry of the source.

“AEGFSYTVANKAKGIT [PCC50V54A, analog of pigeon cytochrome C peptide PCC(43-58)]”: in test [1] (in vitro stimulation of transgenic T cells), the “agonist potency / agonist properties” value is recorded as “strong agonist”. In addition, the “recognition by the transgenic TCR / stimulation of transgenic cells” value in test [1] (peptides presented by irradiated C57BL6 splenocytes) is given as “recognizes; also recorded: stimulate”. Moreover, the “negative selection of transgenic thymocytes” value in test [2] (20 μg i.p., 24 hours, thymus cellularity, annexin V, TUNNEL) is “does not induce negative selection; also recorded: did not induce negative selection”. The thymus cellularity result in test [2] (20 μg, TgTCRα^−H-2M^−Ii^− or TgTCRα^−A^bwt mice) is “the same as in control mice”. The “negative selection / deletion of transgenic thymocytes” value in test [2] (200 μg/mouse i.p., 24 hours) was “induced profound negative selection; also recorded: induced profound deletion”. Further, the “apoptotic cells by TUNNEL assay and annexin V staining” value in test [2] (after peptide injection, 20 μg) is on record as “failed to demonstrate apoptotic cells”. The “cellularity of the thymus and number of apoptotic cells (TUNNEL assay and annexin V staining)” value in test [3] (20 μg, compared with controls) is listed as “the same”. In test [3] (after injection of selecting peptide (20 μg, 48 hours)), the “expression of TCR, CD69, bcl-2 on thymocytes” value is “became bcl-2+; also recorded: upregulated CD69 and bcl-2 expression; also recorded: upregulated TCR and CD69 expression; also recorded: Bcl-2 was upregulated”. In addition, in test [3] (i.p., non-deleting dose (20 μg)), the “positive selection of transgenic thymocytes” value is recorded as “restored selection of CD4^+ single positive thymocytes”. Besides, the “CD25 phenotype of newly selected CD4^+ thymocytes” value in test [3] (mouse, in vivo) is recorded as “CD25^−”. Further, in test [3] (setting [5]), the “differentiation of thymocytes into single positive CD4^+ cells” value is recorded as “differentiate into single positive CD4^+ cells”. The “total number of thymocytes” value is on record as 161.5×10^6±54.4 in test [3] (setting [5]) and 142.5×10^6±44.9 in test [3] (one i.p. injection of 50 μg, 48 hours). The “duration of positive selection of CD4^+ thymocytes after a single injection” value in test [3] (single injection) is reported as 14 days. In test [4], the “duration of continuous positive selection of CD4^+ thymocytes in NTOC” value lay in the range of 4 to 5 days.
